{
  "source": "patent US6313375A",
  "about": "“Maize aquaporins and uses thereof” (Pioneer Hi-Bred International, Inc., priority 1999, dated 2001)",
  "molecules": {"B1": {"name": "AtRD28 aquaporin: plasma membrane AtRD28 aquaporin (Daniels et al., 1994), injected into oocytes as cRNA (protein, UniProt P30302 1-285, looked up)", "Aquaporin PIP2-3": "MAKDVEGPDGFQTRDYEDPPPTPFFDAEELTKWSLYRAVIAEFVATLLFLYVTVLTVIGYKIQSDTKAGGVDCGGVGILGIAWAFGGMIFILVYCTAGISGGHINPAVTFGLFLARKVSLIRAVLYMVAQCLGAICGVGFVKAFQSSHYVNYGGGANFLADGYNTGTGLAAEIIGTFVLVYTVFSATDPKRNARDSHVPVLAPLPIGFAVFMVHLATIPITGTGINPARSFGAAVIFNKSKPWDDHWIFWVGPFIGATIAAFYHQFVLRASGSKSLGSFRSAANV"}},
  "key": {"maize aquaporins": {"tested_on": "maize aquaporins", "assay": "Inhibition of water transport through maize aquaporins in the Xenopus oocyte swelling assay", "type": "cell-based", "experimental": "(§1) The biological activity of aquaporins is usually determined with Xenopus oocyte swelling assays (Maurel et al, 1993). MIP cRNA is injected into oocytes and after a 3-day incubation the oocytes are shifted to a hypotonic medium. If water channel proteins are present in the plasma membrane, the oocytes swell and burst much faster than the control oocytes. In these conditions oocytes injected with the plasma membrane AtRD28 aquaporin (Daniels et al., 1994) or maize aquaporin cRNAs rapidly increase their volume, indicating the presence of a facilitated water-transport pathway. The osmotic water permeability coefficient (Pf) of the oocyte membrane increases 8-fold over the control. Mercurial compounds were characteristic inhibitors of many water-channel proteins. Water transport through maize aquaporins are inhibited 50% by 1 mM mercuric chloride and this inhibition is reversed by the reducing agent -mercaptoethanol."}, "Xenopus oocyte": {"tested_on": "Xenopus oocyte", "assay": "Xenopus oocyte swelling assay (oocytes injected with aquaporin cRNA, shifted to hypotonic medium)", "type": "cell-based", "settings": "3-day incubation, versus control oocytes", "experimental": "as §1"}},
  "data": [
    {"molecule": "OCCS", "note": "[-mercaptoethanol]", "values": [
      {"measurement": "reversal of the mercuric chloride inhibition of water transport through maize aquaporins", "setting": "maize aquaporins; reducing agent added after inhibition by 1 mM mercuric chloride", "result": "reversed"}
    ]},
    {"molecule": "[Cl][Hg][Cl]", "note": "[mercuric chloride]", "values": [
      {"measurement": "inhibition of water transport through maize aquaporins", "setting": "maize aquaporins; 1 mM mercuric chloride", "result": 50, "unit": "%"}
    ]},
    {"molecule": "B1", "values": [
      {"measurement": "increase of the osmotic water permeability coefficient (Pf) of the oocyte membrane over the control", "setting": "Xenopus oocyte", "result": 8, "unit": "fold"}
    ]}
  ]
}
